Results from US20240207265A1, “TREATMENT OF CNS DISEASES WITH sGC STIMULATORS” (Tisento Therapeutics Inc., priority 2021, published 2024).

Columns and labels:
[1] = Non-human primate CSF pharmacokinetics (Study B), cisterna magna versus lumbar sampling; assay type: in vivo, cynomolgus monkeys
Method: The objective of this study was to investigate the pharmacokinetics of Compound I-14 after administration of a single […] bolus or oral gavage dose to cynomolgus monkeys on Day 1 and to evaluate differences in pharmacokinetic values when comparing CSF collected at the cisterna magna (as in Example 10A) versus lumbar locations.
Single doses of Compound I-14 were administered intravenously as a bolus injection of a solution at 0.15 mg/kg and orally by gavage as a suspension at 0.5 mg/kg to a group of four female cynomolgus monkeys in a crossover design. Plasma samples were collected at 0.25 (15 min), 0.5 (30 min), 1, 2, 3, 6, 8, 12, 24, 32, and 48 h following the IV and PO doses. CSF samples were collected at 3 and 24 h for all animals from the cisterna magna in groups 1 and 2 and the lumbar from groups 3 and 4. Sample extracts were prepared by protein precipitation and Compound I-14 concentrations were measured using LC-MS/MS. Pharmacokinetic parameters were calculated.

[2] = tested on: sleep-stage specific pharmaco-EEG; assay: Sleep-wake pharmaco-EEG in telemeter-implanted rats; assay type: in vivo, rat
Excerpt: Young adult male Sprague-Dawley (SD) rats (˜275-325 grams on arrival) from Envigo (Indianapolis, IN) were used in the study. Upon receipt, rats were assigned unique identification numbers and housed with 3 rats per cage in polycarbonate cages with micro-isolator filter tops. All rats were examined and weighed prior to initiation of the study to assure adequate health and suitability. During the course of the study, 12/12 light/dark cycles were maintained. The room temperature was maintained between […] and 23° C. with a relative humidity maintained around 50%. Chow and water were provided ad libitum for the duration of the study. Following surgery, rats were single housed. After a period of recovery (7-10 days), animals were transferred to an EEG recording room and placed over a DSI receiver for recordings.
• a. Vehicle A • i. Route: PO • ii. Volume: 10 ml/kg • iii. Formulation: Water • b. Compound I-14 at 3 mg/kg • i. Route: PO • ii. Volume: 10 ml/kg • iii. Formulation: 3 mg/kg in water • c. Compound I-14 at 10 mg/kg • i. Route: PO • ii. Volume: 10 ml/kg • iii. Formulation: 10 mg/kg in water • d. Compound I-14 at 30 mg/kg • i. Route: PO • ii. Volume: 10 ml/kg • iii. Formulation: 30 mg/kg in water
Briefly, animals were implanted with DSI Telemetry devices (F50-EET) in a 3 channel (lead pairs) configuration. Note the positive and negative lead placements for each location. Each of the EEG channels on the DSI transmitter functions as a differential input whereby the differential input measures the difference between the positive and negative leads. Frontal/Parietal (right): (+) 2 mm Anterior, 2 mm Lateral; (−) 4 mm Posterior, 2 mm Lateral; Frontal/Frontal (bihemispheric): (+) 2 mm Anterior, 2 mm Lateral (right); (−) 2 mm Anterior, 2 mm Lateral (left); and neck EMG.
This study followed a Monday and Thursday dosing/recording schedule, where Baseline EEG was recorded 2 hours and then rats received first dose of Compound I-14 at 0.3, 3 or 10 mg/kg or Vehicle A (all orally) between 7:50-8:00 AM and a second dose of the same after about 12 hours, and EEG continued 12 hours afterwards. • EEG Recordings began at 6 AM (at time lights turn on) • Dosing occurred at 7:50 am AM (1 hour 50 minutes after lights ON) • 2nd dosing (same compound) occurred at 7:50 PM (1 hour and 50 minutes after lights OFF) • EEG Recordings continued until 7:50 AM the following day (24 hours after 1st dose and 12 hours after 2nd dose).
Animals were tested in a cross-over design with at least 72-hour washout period between doses. On each testing day, animals received compound or vehicle orally just under 2 hours (7:50 AM) after lights on (6:00 AM). Data were recorded from 2 hours prior to dosing and recorded continuously for 24 hours post dose.
Raw EEG recordings were manually scored using Neuroscore software (Data Sciences International) to identify sleep stages: Active Wake, Quiet Wake, NREM and REM. Using NeuroScore (DSI), artifacts were removed offline from the data and sleep stages assigned manually for every 10 s epoch using EEG, EMG and Locomotor activity (LMA) by conventional methods as previously described (Ivarsson et al., 2005; Parmentier-Batteur et al., 2012; Leiser et al., 2014, 2015) using the fronto-parietal EEG, LMA and EMG: active wake (less regular, low-amplitude EEG with high EMG and LMA activity); quiet wake (less regular, low-amplitude EEG, with low EMG and no LMA activity); NREM (consisting of high-amplitude irregular waves with predominant delta (1-4 Hz), low EMG and no LMA); REM sleep (stable, low-amplitude waves dominated by theta (4-8 Hz) with near absent EMG and no LMA).
The sleep stage data were exported from a Neuroscore report template of sleep state time per each 15 min (2 hours pre-dose to 4 hours post-dose). The onset of the first sleep and first REM were also reported directly from a Neuroscore report template. […]

- geomean ratio of CSF concentration to unbound concentration in plasma ([1]; 3 hours, IV dosing, cisterna magna sampling): C (2<Kp,uu≤3=C)
- geomean ratio of CSF concentration to unbound concentration in plasma ([1]; 3 hours, IV dosing, lumbar sampling): C (2<Kp,uu≤3=C)
- geomean ratio of CSF concentration to unbound concentration in plasma ([1]; 3 hours, oral dosing, cisterna magna sampling): C (2<Kp,uu≤3=C)
- geomean ratio of CSF concentration to unbound concentration in plasma ([1]; 3 hours, oral dosing, lumbar sampling): C (2<Kp,uu≤3=C)
- geomean ratio of CSF concentration to unbound concentration in plasma ([1]; 24 hours, IV dosing, cisterna magna sampling): B (1<Kp,uu≤2=B)
- geomean ratio of CSF concentration to unbound concentration in plasma ([1]; 24 hours, IV dosing, lumbar sampling): B (1<Kp,uu≤2=B)
- geomean ratio of CSF concentration to unbound concentration in plasma ([1]; 24 hours, oral dosing, cisterna magna sampling): C (2<Kp,uu≤3=C)
- geomean ratio of CSF concentration to unbound concentration in plasma ([1]; 24 hours, oral dosing, lumbar sampling): C (2<Kp,uu≤3=C)
Compound: Cc1cc(F)c(Cc2nc(-c3ncc(F)c(O)n3)cn3ccnc23)cc1F [Compound I-14, 5-fluoro-2-(8-(2,5-difluoro-4-methylbenzyl)imidazo[1,2-a]pyrazin-6-yl)pyrimidin-4-ol]
- EEG spectral power in QW ([2]; 3 mg/kg PO): increased low gamma 0-180 minutes post dose
- EEG spectral power in QW ([2]; 30 mg/kg PO): increased low gamma 0-240 and high gamma 0-180 minutes post dose
- EEG spectral power in NREM ([2]; 30 mg/kg PO, ˜0-300 minutes post dose): decreased delta, theta, alpha and increased low and high gamma
- REM and NREM in hypnograms vs vehicle (A) group ([2]; high dose (30 mg/kg) PO): notable decrease in REM and NREM
- onset of NREM, REM and REM latency ([2]; high dose (30 mg/kg) PO): delayed
- Quiet Wake in hypnograms ([2]; highest dose (30 mg/kg) PO): increase in Quiet Wake
